tested on: HepG2; test: Cytotoxicity against human HepG2 cells after 3 days by XTT assay; format: functional, cell-based; conditions: HepG2, 72 h

`CCOC(=O)[C@H](C)NP(=O)(OC[C@H]1O[C@@H](n2ccc3c(-c4ccsc4)ncnc32)[C@H](O)[C@@H]1O)Oc1ccccc1` (some centres undefined) and `CCOC(=O)[C@H](C)NP(=O)(OC[C@H]1O[C@@H](n2ccc3c(-c4ccccc4)ncnc32)[C@H](O)[C@@H]1O)Oc1ccccc1` (some centres undefined) cannot be ordered by IC50: greater than 10 µM for the first, greater than 10 µM for the second.

`COC(=O)[C@H](C)NP(=O)(OC[C@H]1O[C@@H](n2ccc3c(-c4ccccc4)ncnc32)[C@H](O)[C@@H]1O)Oc1ccccc1` (some centres undefined) and `C[C@H](NP(=O)(OC[C@H]1O[C@@H](n2ccc3c(-c4ccccc4)ncnc32)[C@H](O)[C@@H]1O)Oc1ccccc1)C(=O)OCc1ccccc1` (some centres undefined) cannot be ordered by IC50: greater than 10 µM for the first, greater than 10 µM for the second.

`COC(=O)[C@H](C)NP(=O)(OC[C@H]1O[C@@H](n2ccc3c(-c4cccc5c4oc4ccccc45)ncnc32)[C@H](O)[C@@H]1O)Oc1ccccc1` (some centres undefined) and `CCOC(=O)[C@H](C)NP(=O)(OC[C@H]1O[C@@H](n2ccc3c(-c4cccc5c4oc4ccccc45)ncnc32)[C@H](O)[C@@H]1O)Oc1ccccc1` (some centres undefined) cannot be ordered by IC50: greater than 10 µM for the first, greater than 10 µM for the second.

`C[C@H](NP(=O)(OC[C@H]1O[C@@H](n2ccc3c(-c4cccc5c4oc4ccccc45)ncnc32)[C@H](O)[C@@H]1O)Oc1ccccc1)C(=O)OCc1ccccc1` (some centres undefined) and `OC[C@H]1O[C@@H](n2ccc3c(-c4cccc5c4oc4ccccc45)ncnc32)[C@H](O)[C@@H]1O` cannot be ordered by IC50: greater than 10 µM for the first, greater than 10 µM for the second.

Compared with `OC[C@H]1O[C@@H](n2ccc3c(-c4ccoc4)ncnc32)[C@H](O)[C@@H]1O`, `OC[C@H]1O[C@@H](n2ccc3c(-c4ccsc4)ncnc32)[C@H](O)[C@@H]1O` is 1.9-fold higher in IC50: 1.72 µM for the first, 3.22 µM for the second.

Going from `OC[C@H]1O[C@@H](n2ccc3c(-c4ccco4)ncnc32)[C@H](O)[C@@H]1O` to `OC[C@H]1O[C@@H](n2ccc3c(-c4ccccc4)ncnc32)[C@H](O)[C@@H]1O`, the IC50 rises from 0.47 µM to greater than 10 µM. The first is the more potent here.

tested on: not listed separately; test: Cytotoxicity against human HeLaS3 cells after 3 days by XTT assay; format: functional, cell-based; conditions: HeLa S3, 72 h

`CCOC(=O)[C@H](C)NP(=O)(OC[C@H]1O[C@@H](n2ccc3c(-c4ccsc4)ncnc32)[C@H](O)[C@@H]1O)Oc1ccccc1` (some centres undefined) and `CCOC(=O)[C@H](C)NP(=O)(OC[C@H]1O[C@@H](n2ccc3c(-c4ccccc4)ncnc32)[C@H](O)[C@@H]1O)Oc1ccccc1` (some centres undefined) cannot be ordered by IC50: greater than 10 µM for the first, greater than 10 µM for the second.

`COC(=O)[C@H](C)NP(=O)(OC[C@H]1O[C@@H](n2ccc3c(-c4ccccc4)ncnc32)[C@H](O)[C@@H]1O)Oc1ccccc1` (some centres undefined) and `C[C@H](NP(=O)(OC[C@H]1O[C@@H](n2ccc3c(-c4ccccc4)ncnc32)[C@H](O)[C@@H]1O)Oc1ccccc1)C(=O)OCc1ccccc1` (some centres undefined) cannot be ordered by IC50: greater than 10 µM for the first, greater than 10 µM for the second.

`COC(=O)[C@H](C)NP(=O)(OC[C@H]1O[C@@H](n2ccc3c(-c4cccc5c4oc4ccccc45)ncnc32)[C@H](O)[C@@H]1O)Oc1ccccc1` (some centres undefined) and `CCOC(=O)[C@H](C)NP(=O)(OC[C@H]1O[C@@H](n2ccc3c(-c4cccc5c4oc4ccccc45)ncnc32)[C@H](O)[C@@H]1O)Oc1ccccc1` (some centres undefined) cannot be ordered by IC50: greater than 10 µM for the first, greater than 10 µM for the second.

`C[C@H](NP(=O)(OC[C@H]1O[C@@H](n2ccc3c(-c4cccc5c4oc4ccccc45)ncnc32)[C@H](O)[C@@H]1O)Oc1ccccc1)C(=O)OCc1ccccc1` (some centres undefined) and `OC[C@H]1O[C@@H](n2ccc3c(-c4cccc5c4oc4ccccc45)ncnc32)[C@H](O)[C@@H]1O` cannot be ordered by IC50: greater than 10 µM for the first, greater than 10 µM for the second.

With `OC[C@H]1O[C@@H](n2ccc3c(-c4ccccc4)ncnc32)[C@H](O)[C@@H]1O` the IC50 was 4.1 µM.

tested on: HL-60; test: Cytotoxicity against human HL60 cells after 5 days by SRB assay; format: functional; conditions: HL-60, 120 h

`CCOC(=O)[C@H](C)NP(=O)(OC[C@H]1O[C@@H](n2ccc3c(-c4ccsc4)ncnc32)[C@H](O)[C@@H]1O)Oc1ccccc1` (some centres undefined) and `CCOC(=O)[C@H](C)NP(=O)(OC[C@H]1O[C@@H](n2ccc3c(-c4ccccc4)ncnc32)[C@H](O)[C@@H]1O)Oc1ccccc1` (some centres undefined) cannot be ordered by GI50: greater than 10 µM for the first, greater than 10 µM for the second.

First: COC(=O)[C@H](C)NP(=O)(OC[C@H]1O[C@@H](n2ccc3c(-c4ccccc4)ncnc32)[C@H](O)[C@@H]1O)Oc1ccccc1 (some centres undefined)
Second: C[C@H](NP(=O)(OC[C@H]1O[C@@H](n2ccc3c(-c4ccccc4)ncnc32)[C@H](O)[C@@H]1O)Oc1ccccc1)C(=O)OCc1ccccc1 (some centres undefined)
The GI50 of the first is higher: greater than 10 µM for the first, 5.65 µM for the second.

`COC(=O)[C@H](C)NP(=O)(OC[C@H]1O[C@@H](n2ccc3c(-c4cccc5c4oc4ccccc45)ncnc32)[C@H](O)[C@@H]1O)Oc1ccccc1` (some centres undefined) and `CCOC(=O)[C@H](C)NP(=O)(OC[C@H]1O[C@@H](n2ccc3c(-c4cccc5c4oc4ccccc45)ncnc32)[C@H](O)[C@@H]1O)Oc1ccccc1` (some centres undefined) cannot be ordered by GI50: greater than 10 µM for the first, greater than 10 µM for the second.

`C[C@H](NP(=O)(OC[C@H]1O[C@@H](n2ccc3c(-c4cccc5c4oc4ccccc45)ncnc32)[C@H](O)[C@@H]1O)Oc1ccccc1)C(=O)OCc1ccccc1` (some centres undefined) and `OC[C@H]1O[C@@H](n2ccc3c(-c4cccc5c4oc4ccccc45)ncnc32)[C@H](O)[C@@H]1O` cannot be ordered by GI50: greater than 10 µM for the first, greater than 10 µM for the second.

First: OC[C@H]1O[C@@H](n2ccc3c(-c4ccoc4)ncnc32)[C@H](O)[C@@H]1O
Second: OC[C@H]1O[C@@H](n2ccc3c(-c4ccsc4)ncnc32)[C@H](O)[C@@H]1O
The GI50 of the first is lower: 1.5 µM for the first, greater than 40 µM for the second.

With `OC[C@H]1O[C@@H](n2ccc3c(-c4ccco4)ncnc32)[C@H](O)[C@@H]1O` the GI50 was 0.81 µM.

tested on: CCRF-CEM; test: Cytotoxicity against human CCRF-CEM cells after 3 days by XTT assay; format: functional, cell-based; conditions: 72 h

`CCOC(=O)[C@H](C)NP(=O)(OC[C@H]1O[C@@H](n2ccc3c(-c4ccsc4)ncnc32)[C@H](O)[C@@H]1O)Oc1ccccc1` (some centres undefined) and `CCOC(=O)[C@H](C)NP(=O)(OC[C@H]1O[C@@H](n2ccc3c(-c4ccccc4)ncnc32)[C@H](O)[C@@H]1O)Oc1ccccc1` (some centres undefined) cannot be ordered by IC50: greater than 10 µM for the first, greater than 10 µM for the second.

`COC(=O)[C@H](C)NP(=O)(OC[C@H]1O[C@@H](n2ccc3c(-c4ccccc4)ncnc32)[C@H](O)[C@@H]1O)Oc1ccccc1` (some centres undefined) and `C[C@H](NP(=O)(OC[C@H]1O[C@@H](n2ccc3c(-c4ccccc4)ncnc32)[C@H](O)[C@@H]1O)Oc1ccccc1)C(=O)OCc1ccccc1` (some centres undefined) cannot be ordered by IC50: greater than 10 µM for the first, greater than 10 µM for the second.

`COC(=O)[C@H](C)NP(=O)(OC[C@H]1O[C@@H](n2ccc3c(-c4cccc5c4oc4ccccc45)ncnc32)[C@H](O)[C@@H]1O)Oc1ccccc1` (some centres undefined) and `CCOC(=O)[C@H](C)NP(=O)(OC[C@H]1O[C@@H](n2ccc3c(-c4cccc5c4oc4ccccc45)ncnc32)[C@H](O)[C@@H]1O)Oc1ccccc1` (some centres undefined) cannot be ordered by IC50: greater than 10 µM for the first, greater than 10 µM for the second.

`C[C@H](NP(=O)(OC[C@H]1O[C@@H](n2ccc3c(-c4cccc5c4oc4ccccc45)ncnc32)[C@H](O)[C@@H]1O)Oc1ccccc1)C(=O)OCc1ccccc1` (some centres undefined) and `OC[C@H]1O[C@@H](n2ccc3c(-c4cccc5c4oc4ccccc45)ncnc32)[C@H](O)[C@@H]1O` cannot be ordered by IC50: greater than 10 µM for the first, greater than 10 µM for the second.

`OC[C@H]1O[C@@H](n2ccc3c(-c4ccccc4)ncnc32)[C@H](O)[C@@H]1O` gave an IC50 of 1 µM.

tested on: DU-145; test: Cytotoxicity against human DU145 cells after 5 days by SRB assay; format: functional; conditions: DU-145, 120 h

`CCOC(=O)[C@H](C)NP(=O)(OC[C@H]1O[C@@H](n2ccc3c(-c4ccsc4)ncnc32)[C@H](O)[C@@H]1O)Oc1ccccc1` (some centres undefined) and `COC(=O)[C@H](C)NP(=O)(OC[C@H]1O[C@@H](n2ccc3c(-c4ccccc4)ncnc32)[C@H](O)[C@@H]1O)Oc1ccccc1` (some centres undefined) cannot be ordered by GI50: greater than 10 µM for the first, greater than 10 µM for the second.

For `OC[C@H]1O[C@@H](n2ccc3c(-c4ccccc4)ncnc32)[C@H](O)[C@@H]1O`, the GI50 was 0.075 µM.

tested on: not listed separately; test: Cytotoxicity against human Hs578 cells after 5 days by SRB assay; format: functional; conditions: Hs578, 120 h

`CCOC(=O)[C@H](C)NP(=O)(OC[C@H]1O[C@@H](n2ccc3c(-c4ccsc4)ncnc32)[C@H](O)[C@@H]1O)Oc1ccccc1` (some centres undefined) and `CCOC(=O)[C@H](C)NP(=O)(OC[C@H]1O[C@@H](n2ccc3c(-c4ccccc4)ncnc32)[C@H](O)[C@@H]1O)Oc1ccccc1` (some centres undefined) cannot be ordered by GI50: greater than 10 µM for the first, greater than 10 µM for the second.

`COC(=O)[C@H](C)NP(=O)(OC[C@H]1O[C@@H](n2ccc3c(-c4ccccc4)ncnc32)[C@H](O)[C@@H]1O)Oc1ccccc1` (some centres undefined) and `C[C@H](NP(=O)(OC[C@H]1O[C@@H](n2ccc3c(-c4ccccc4)ncnc32)[C@H](O)[C@@H]1O)Oc1ccccc1)C(=O)OCc1ccccc1` (some centres undefined) cannot be ordered by GI50: greater than 10 µM for the first, greater than 10 µM for the second.

`COC(=O)[C@H](C)NP(=O)(OC[C@H]1O[C@@H](n2ccc3c(-c4cccc5c4oc4ccccc45)ncnc32)[C@H](O)[C@@H]1O)Oc1ccccc1` (some centres undefined) and `CCOC(=O)[C@H](C)NP(=O)(OC[C@H]1O[C@@H](n2ccc3c(-c4cccc5c4oc4ccccc45)ncnc32)[C@H](O)[C@@H]1O)Oc1ccccc1` (some centres undefined) cannot be ordered by GI50: greater than 10 µM for the first, greater than 10 µM for the second.

`C[C@H](NP(=O)(OC[C@H]1O[C@@H](n2ccc3c(-c4cccc5c4oc4ccccc45)ncnc32)[C@H](O)[C@@H]1O)Oc1ccccc1)C(=O)OCc1ccccc1` (some centres undefined) and `OC[C@H]1O[C@@H](n2ccc3c(-c4cccc5c4oc4ccccc45)ncnc32)[C@H](O)[C@@H]1O` cannot be ordered by GI50: greater than 10 µM for the first, greater than 10 µM for the second.

In the case of `OC[C@H]1O[C@@H](n2ccc3c(-c4ccccc4)ncnc32)[C@H](O)[C@@H]1O`, the GI50 is reported as 3.1 µM.

tested on: NCI-H23; test: Cytotoxicity against human NCI-H23 cells after 5 days by SRB assay; format: functional; conditions: NCI-H23, 120 h

`CCOC(=O)[C@H](C)NP(=O)(OC[C@H]1O[C@@H](n2ccc3c(-c4ccsc4)ncnc32)[C@H](O)[C@@H]1O)Oc1ccccc1` (some centres undefined) and `COC(=O)[C@H](C)NP(=O)(OC[C@H]1O[C@@H](n2ccc3c(-c4ccccc4)ncnc32)[C@H](O)[C@@H]1O)Oc1ccccc1` (some centres undefined) cannot be ordered by GI50: greater than 10 µM for the first, greater than 10 µM for the second.

tested on: HCT-116; test: Cytotoxicity against human HCT116 cells after 5 days by SRB assay; format: functional; conditions: HCT-116, 120 h

`CCOC(=O)[C@H](C)NP(=O)(OC[C@H]1O[C@@H](n2ccc3c(-c4ccsc4)ncnc32)[C@H](O)[C@@H]1O)Oc1ccccc1` (some centres undefined) and `CCOC(=O)[C@H](C)NP(=O)(OC[C@H]1O[C@@H](n2ccc3c(-c4ccccc4)ncnc32)[C@H](O)[C@@H]1O)Oc1ccccc1` (some centres undefined) cannot be ordered by GI50: greater than 10 µM for the first, greater than 10 µM for the second.

`COC(=O)[C@H](C)NP(=O)(OC[C@H]1O[C@@H](n2ccc3c(-c4ccccc4)ncnc32)[C@H](O)[C@@H]1O)Oc1ccccc1` (some centres undefined) and `C[C@H](NP(=O)(OC[C@H]1O[C@@H](n2ccc3c(-c4ccccc4)ncnc32)[C@H](O)[C@@H]1O)Oc1ccccc1)C(=O)OCc1ccccc1` (some centres undefined) cannot be ordered by GI50: greater than 10 µM for the first, greater than 10 µM for the second.

`COC(=O)[C@H](C)NP(=O)(OC[C@H]1O[C@@H](n2ccc3c(-c4cccc5c4oc4ccccc45)ncnc32)[C@H](O)[C@@H]1O)Oc1ccccc1` (some centres undefined) and `CCOC(=O)[C@H](C)NP(=O)(OC[C@H]1O[C@@H](n2ccc3c(-c4cccc5c4oc4ccccc45)ncnc32)[C@H](O)[C@@H]1O)Oc1ccccc1` (some centres undefined) cannot be ordered by GI50: greater than 10 µM for the first, greater than 10 µM for the second.

`C[C@H](NP(=O)(OC[C@H]1O[C@@H](n2ccc3c(-c4cccc5c4oc4ccccc45)ncnc32)[C@H](O)[C@@H]1O)Oc1ccccc1)C(=O)OCc1ccccc1` (some centres undefined) and `OC[C@H]1O[C@@H](n2ccc3c(-c4cccc5c4oc4ccccc45)ncnc32)[C@H](O)[C@@H]1O` cannot be ordered by GI50: greater than 10 µM for the first, greater than 10 µM for the second.

Molecule `OC[C@H]1O[C@@H](n2ccc3c(-c4ccccc4)ncnc32)[C@H](O)[C@@H]1O` has a GI50 of 5.7 µM.

Source: ChEMBL document CHEMBL1641589, “Phosphoramidate pronucleotides of cytostatic 6-aryl-7-deazapurine ribonucleosides” (Bioorg Med Chem, 2011)
